Data published in PubChem BioAssay AID280 (DTP/NCI, 2004).
Where “and” joins values, the source holds several entries; their conditions need not be identical. Equal entries are not always repeated. Toxic doses and inconclusive results are not listed.

System: nude mice, LOX melanoma ip, survival T/C
Test: NCI In Vivo Anticancer Drug Screen. Data for tumor model Human Amelanotic Melanoma (LOX) (intraperitoneal) in NU/NU BALB/C (nude) mice
Details: endpoint: median survival time, higher = longer survival
Experimental: The antitumor activity of compounds was measured in mice bearing transplantable tumors. Survival or tumor size were measured and the results are expressed as the measurement made in the treated group (T) divided by the measurement made in the vehicle treated control group (C). The tumor model used in this assay is Human Amelanotic Melanoma (LOX) (intraperitoneal) in NU/NU BALB/C (nude) mice

[1] = dose: 75.0 mg/kg/injection, schedule: Q04DX003 (ip), vehicle: saline with Tween-80
[2] = dose: 150.0 mg/kg/injection, schedule: Q04DX003 (ip), vehicle: saline with Tween-80
[3] = dose: 300.0 mg/kg/injection, schedule: Q04DX003 (ip), vehicle: saline with Tween-80
[4] = dose: 50.0 mg/kg/injection, schedule: Q04DX003 (ip), vehicle: suspension in saline
[5] = dose: 100.0 mg/kg/injection, schedule: Q04DX003 (ip), vehicle: suspension in saline
[6] = dose: 12.5 mg/kg/injection, schedule: Q04DX003 (ip), vehicle: saline with Tween-80
[7] = dose: 25.0 mg/kg/injection, schedule: Q04DX003 (ip), vehicle: saline with Tween-80
[8] = dose: 50.0 mg/kg/injection, schedule: Q04DX003 (ip), vehicle: saline with Tween-80
[9] = dose: 100.0 mg/kg/injection, schedule: Q04DX003 (ip), vehicle: saline with Tween-80
[10] = dose: 200.0 mg/kg/injection, schedule: Q04DX003 (ip), vehicle: saline with Tween-80
[11] = dose: 400.0 mg/kg/injection, schedule: Q04DX003 (ip), vehicle: saline with Tween-80
[12] = dose: 800.0 mg/kg/injection, schedule: Q04DX003 (ip), vehicle: saline with Tween-80
[13] = dose: 75.0 mg/kg/injection, schedule: Q04DX003 (ip), vehicle: Klucel (hydroxypropylcellulose) (HPC)
[14] = dose: 150.0 mg/kg/injection, schedule: Q04DX003 (ip), vehicle: Klucel (hydroxypropylcellulose) (HPC)
[15] = dose: 300.0 mg/kg/injection, schedule: Q04DX003 (ip), vehicle: Klucel (hydroxypropylcellulose) (HPC)
[16] = dose: 600.0 mg/kg/injection, schedule: Q04DX003 (ip), vehicle: saline with Tween-80

CO[C@@H]1C2=CC=CC=C[C@H]2n2c(=O)n(C)c(=O)n21
T/C (dose: 37.5 mg/kg/injection, schedule: Q04DX003 (ip), vehicle: other): 104 % of control | T/C (dose: 75.0 mg/kg/injection, schedule: Q04DX003 (ip), vehicle: other): 105 % of control | T/C (dose: 150.0 mg/kg/injection, schedule: Q04DX003 (ip), vehicle: other): 102 % of control

O=C(CCCCCCC(=O)ON1C(=O)CCC1=O)ON1C(=O)CCC1=O
T/C [1]: 117 % of control | T/C [2]: 101 % of control | T/C [3]: 98 % of control

CC(O)CCC(=O)c1ccoc1 (stereo not drawn)
T/C (dose: 10.8 mg/kg/injection, schedule: Q01DX001 (ip), vehicle: propolene glycol): 103 % of control and 118 % of control and 119 % of control | T/C (dose: 30.0 mg/kg/injection, schedule: Q01DX001 (ip), vehicle: propolene glycol): 117 % of control

O=C(O)c1cc(C(=O)O)c(C(=O)O)cc1C(=O)O.[NH2-].[NH2-].[NH2-].[NH2-].[Pt+2].[Pt+2]
T/C (dose: 6.25 mg/kg/injection, schedule: Q04DX003 (ip), vehicle: water): 89 % of control | T/C (dose: 12.5 mg/kg/injection, schedule: Q04DX003 (ip), vehicle: water): 104 % of control | T/C (dose: 25.0 mg/kg/injection, schedule: Q04DX003 (ip), vehicle: water): 115 % of control | T/C (dose: 50.0 mg/kg/injection, schedule: Q04DX003 (ip), vehicle: water): 115 % of control

N=C(N)SCc1cccc2c(=O)cc(-c3ccccc3)oc12
T/C (dose: 25.0 mg/kg/injection, schedule: Q04DX003 (ip), vehicle: suspension in saline): 101 % of control | T/C [4]: 111 % of control | T/C [5]: 118 % of control | T/C (dose: 400.0 mg/kg/injection, schedule: Q04DX003 (ip), vehicle: suspension in saline): 124 % of control

CCN(CC)CC(C)(C)C(=O)/C=C/c1ccc(/C=C/C(=O)C(C)(C)CN(CC)CC)cc1
T/C (dose: 7.5 mg/kg/injection, schedule: Q04DX003 (ip), vehicle: saline): 103 % of control | T/C (dose: 15.0 mg/kg/injection, schedule: Q04DX003 (ip), vehicle: saline): 116 % of control | T/C (dose: 30.0 mg/kg/injection, schedule: Q04DX003 (ip), vehicle: saline): 109 % of control

Nc1nc2c(C(=O)N3CCCC3)nnn2c2ccccc12
T/C [6]: 96 % of control | T/C [7]: 102 % of control | T/C [8]: 92 % of control

N[C@@H](Cc1ccc(N(CCCl)CCCl)cc1)C(=O)O
T/C (dose: 1.0 mg/kg/injection, schedule: Q01DX005 (ip), vehicle: water): 155 % of control | T/C (dose: 1.0 mg/kg/injection, schedule: Q01DX015 (ip), vehicle: water): 166 % of control | T/C (dose: 2.0 mg/kg/injection, schedule: Q01DX005 (ip), vehicle: water): 258 % of control | T/C (dose: 2.0 mg/kg/injection, schedule: Q01DX015 (ip), vehicle: water): 218 % of control | T/C (dose: 2.5 mg/kg/injection, schedule: Q01DX001 (ip), vehicle: water): 171 % of control | T/C (dose: 2.5 mg/kg/injection, schedule: Q04DX003 (ip), vehicle: water): 162 % of control | T/C (dose: 4.0 mg/kg/injection, schedule: Q01DX005 (ip), vehicle: water): 344 % of control | T/C (dose: 4.0 mg/kg/injection, schedule: Q01DX015 (ip), vehicle: water): 344 % of control | T/C (dose: 5.0 mg/kg/injection, schedule: Q01DX001 (ip), vehicle: water): 188 % of control | T/C (dose: 5.0 mg/kg/injection, schedule: Q04DX003 (ip), vehicle: water): 241 % of control | T/C (dose: 6.0 mg/kg/injection, schedule: Q04DX003 (ip), vehicle: saline): 111 % of control and 203 % of control | T/C (dose: 8.0 mg/kg/injection, schedule: Q01DX005 (ip), vehicle: water): 344 % of control | T/C (dose: 9.0 mg/kg/injection, schedule: Q04DX003 (ip), vehicle: saline): 122 % of control and 203 % of control | T/C (dose: 10.0 mg/kg/injection, schedule: Q01DX001 (ip), vehicle: water): 344 % of control | T/C (dose: 10.0 mg/kg/injection, schedule: Q04DX003 (ip), vehicle: water): 344 % of control | T/C (dose: 20.0 mg/kg/injection, schedule: Q01DX001 (ip), vehicle: water): 344 % of control | T/C (dose: 20.0 mg/kg/injection, schedule: Q04DX003 (ip), vehicle: water): 97 % of control

CC(=O)/C(=C\c1ccc(/C=C(\C(C)=O)C(=O)CCN(C)C)cc1)C(=O)CCN(C)C
T/C [8]: 94 % of control | T/C [9]: 100 % of control | T/C [10]: 105 % of control | T/C [11]: 107 % of control | T/C [12]: 111 % of control

CCOC(=O)C1=C(Nc2ccc(OC)cc2)C(N)=NC1=N
T/C [4]: 107 % of control | T/C [5]: 107 % of control

CNC(=O)N(C)N=NCCCl
T/C [9]: 201 % of control | T/C [10]: 309 % of control | T/C [11]: 309 % of control | T/C [12]: 309 % of control

O=C1CC2(C(=O)N1CN1CCOCC1)c1ccccc1-c1ccccc12
T/C [13]: 102 % of control | T/C [14]: 98 % of control | T/C [15]: 103 % of control | T/C (dose: 600.0 mg/kg/injection, schedule: Q04DX003 (ip), vehicle: Klucel (hydroxypropylcellulose) (HPC)): 120 % of control

Nc1ccc2ccc(NS(=O)(=O)N3CCCCC3)cc2c1
T/C [3]: 154 % of control | T/C [16]: 96 % of control

O=C(Nc1cccc(Cl)c1)ON1C(=O)C2C(C1=O)C1(Cl)C(Cl)C(Cl)C2(Cl)C1(Cl)Cl (stereo not drawn)
T/C [1]: 99 % of control | T/C [2]: 86 % of control | T/C [3]: 90 % of control | T/C [16]: 101 % of control

O=C1CN(CCN2CC(=O)N(CN3CCOCC3)C(=O)C2)CC(=O)N1CN1CCOCC1
T/C (dose: 18.75 mg/kg/injection, schedule: Q04DX003 (ip), vehicle: saline with Tween-80): 98 % of control | T/C (dose: 37.5 mg/kg/injection, schedule: Q04DX003 (ip), vehicle: saline with Tween-80): 120 % of control | T/C (dose: 37.5 mg/kg/injection, schedule: Q04DX003 (ip), vehicle: water): 88 % of control | T/C [1]: 108 % of control | T/C (dose: 75.0 mg/kg/injection, schedule: Q04DX003 (ip), vehicle: water): 102 % of control | T/C (dose: 150.0 mg/kg/injection, schedule: Q04DX003 (ip), vehicle: water): 101 % of control

CCOC(=O)C(N)C[S][Sn]([CH3])([CH3])[Cl] (stereo not drawn)
T/C [6]: 99 % of control | T/C [7]: 101 % of control | T/C [8]: 104 % of control

CC(=O)OCC1OC(n2ncc(=O)[nH]c2=O)C(OC(C)=O)C1OC(C)=O (stereo not drawn)
T/C (dose: 75.0 mg/kg/injection, schedule: Q04DX003 (ip), vehicle: suspension in saline): 99 % of control | T/C (dose: 150.0 mg/kg/injection, schedule: Q04DX003 (ip), vehicle: suspension in saline): 105 % of control | T/C (dose: 300.0 mg/kg/injection, schedule: Q04DX003 (ip), vehicle: suspension in saline): 104 % of control | T/C (dose: 600.0 mg/kg/injection, schedule: Q04DX003 (ip), vehicle: suspension in saline): 99 % of control | T/C (dose: 1200.0 mg/kg/injection, schedule: Q04DX003 (ip), vehicle: suspension in saline): 95 % of control

O=S(=O)(c1cccc(N=C=S)c1)c1cccc(N=C=S)c1
T/C (dose: 15.0 mg/kg/injection, schedule: Q04DX003 (ip), vehicle: Klucel (hydroxypropylcellulose) (HPC)): 91 % of control | T/C (dose: 30.0 mg/kg/injection, schedule: Q04DX003 (ip), vehicle: Klucel (hydroxypropylcellulose) (HPC)): 95 % of control | T/C (dose: 60.0 mg/kg/injection, schedule: Q04DX003 (ip), vehicle: Klucel (hydroxypropylcellulose) (HPC)): 107 % of control | T/C (dose: 120.0 mg/kg/injection, schedule: Q04DX003 (ip), vehicle: Klucel (hydroxypropylcellulose) (HPC)): 109 % of control

COc1cccc2c1C(=O)c1c(O)c3c(c(O)c1C2=O)C[C@](O)(C(=O)CO)CC3OC1CC(N)C(OC2CCCCO2)C(C)O1 (stereo partly drawn)
T/C (dose: 0.94 mg/kg/injection, schedule: Q04DX003 (ip), vehicle: water): 122 % of control | T/C (dose: 7.5 mg/kg/injection, schedule: Q04DX003 (ip), vehicle: water): 160 % of control | T/C (dose: 15.0 mg/kg/injection, schedule: Q04DX003 (ip), vehicle: water): 150 % of control

NC(Cc1ccc(N(CCCl)Cc2ccccc2)cc1)C(=O)O (stereo not drawn)
T/C [7]: 107 % of control | T/C [8]: 124 % of control | T/C [10]: 158 % of control and 163 % of control

C=CCOc1cc2c(cc1C(C)c1ccc(OC)cc1)OCO2 (stereo not drawn)
T/C (dose: 37.5 mg/kg/injection, schedule: Q04DX003 (ip), vehicle: Klucel (hydroxypropylcellulose) (HPC)): 101 % of control | T/C [13]: 96 % of control | T/C [14]: 109 % of control | T/C [15]: 112 % of control
